According to patent US6358885B1, “Substituted phenylheterocyclic herbicides” (Mississippi State University, priority 1992, dated 2002):

Columns and labels:
velvetleaf = assay: Test C preemergence/postemergence greenhouse plant response rating 0 to 100; type: in vivo, Abutilon theophrasti; settings: POSTEMERGENCE; for Plant response rating, Velvetleaf: 0 to 100 scale
Procedure, shortened: (§1)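 Compounds in non-phytotoxic solvent applied preemergence to sandy loam one day after planting, postemergence at the 1–4 leaf stage, or to ~2.5 cm floodwater over silt loam.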

wild buckwheat = assay: Test B preemergence/postemergence greenhouse plant response rating 0 to 10; type: in vivo, Polygonum convolvulus; settings: 0 to 10 scale
Procedure, shortened: (§2)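 Postemergence treatment of plants two to eighteen cm tall ran alongside preemergence treatment of planted seed, each using compound in a non-phytotoxic solvent.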

sugar beet = assay: as above; type: in vivo, Beta vulgaris; settings: 0 to 10 scale
Procedure, shortened: as §2

corn [1] = assay: Test C preemergence/postemergence greenhouse plant response rating 0 to 100; type: in vivo, Zea mays; settings: POSTEMERGENCE; for Plant response rating, Corn: 0 to 100 scale
Procedure, shortened: as §1

barnyardgrass = assay: Test C flood test plant response rating 0 to 100; type: in vivo, Echinochloa crus-galli; settings: for Plant response rating, Barnyardgrass: flood test species listed under POSTEMERGENCE, 0 to 100 scale
Procedure, shortened: as §1

bedstraw [2] = assay: Test C preemergence/postemergence greenhouse plant response rating 0 to 100; type: in vivo, Galium aparine; settings: POSTEMERGENCE; for Plant response rating, Bedstraw: 0 to 100 scale
Procedure, shortened: as §1

duck salad = assay: Test C flood test plant response rating 0 to 100; type: in vivo, Heteranthera limosa; settings: for Plant response rating Duck salad: flood test species listed under POSTEMERGENCE, 0 to 100 scale
Procedure, shortened: as §1

downy brome = assay: Test C preemergence/postemergence greenhouse plant response rating 0 to 100; type: in vivo, Bromus tectorum; settings: POSTEMERGENCE; for Plant response rating Downy Brome: 0 to 100 scale
Procedure, shortened: as §1

sorghum = assay: as above; type: in vivo, Sorghum bicolor; settings: POSTEMERGENCE; for Plant response rating, Sorghum: 0 to 100 scale
Procedure, shortened: as §1

corn [3] = assay: Test B preemergence/postemergence greenhouse plant response rating 0 to 10; type: in vivo, Zea mays; settings: 0 to 10 scale
Procedure, shortened: as §2

cotton = assay: Test C preemergence/postemergence greenhouse plant response rating 0 to 100; type: in vivo, Gossypium hirsutum; settings: POSTEMERGENCE; for Plant response rating, Cotton: 0 to 100 scale
Procedure, shortened: as §1

bedstraw [4] = assay: Test B preemergence/postemergence greenhouse plant response rating 0 to 10; type: in vivo, Galium aparine; settings: 0 to 10 scale
Procedure, shortened: as §2

giant foxtail = assay: Test C preemergence/postemergence greenhouse plant response rating 0 to 100; type: in vivo, Setaria faberii; settings: POSTEMERGENCE; for Plant response rating, Giant foxtail: 0 to 100 scale
Procedure, shortened: as §1

chickweed = assay: Test B preemergence/postemergence greenhouse plant response rating 0 to 10; type: in vivo, Stellaria media; settings: 0 to 10 scale
Procedure, shortened: as §2

wild oat = assay: Test C preemergence/postemergence greenhouse plant response rating 0 to 100; type: in vivo, Avena fatua; settings: POSTEMERGENCE; for Plant response rating, Wild oat: 0 to 100 scale
Procedure, shortened: as §1

wheat = assay: as above; type: in vivo, Triticum aestivum; settings: POSTEMERGENCE; for Plant response rating, Wheat: 0 to 100 scale
Procedure, shortened: as §1

morningglory = assay: as above; type: in vivo, Ipomoea hederacea; settings: POSTEMERGENCE; for Plant response rating, Morningglory: 0 to 100 scale
Procedure, shortened: as §1

[5] = POSTEMERGENCE section, flood test, Rate 4 g/ha
[6] = Rate 16 g/ha, under POSTEMERGENCE head (flood test species)

Structure (SMILES): COC(=O)c1cc(-c2nn3c(c2Cl)CCCC3)c(F)cc1Cl [Compound 43]
- Plant response rating, Velvetleaf (velvetleaf; 62 g/ha): 100
- Plant response rating, Velvetleaf (velvetleaf; 250 g/ha): 100
- Plant response rating (0 to 100), Velvetleaf (velvetleaf; Rate 4 g/ha): 50
- Plant response rating (0 to 100), Velvetleaf (velvetleaf; Rate 16 g/ha): 100
- Plant response rating, Wild buckwheat (wild buckwheat; POSTEMERGENCE, Rate 50 g/ha): 10
- Plant response rating, Wild buckwheat (wild buckwheat; PREEMERGENCE, Rate 50 g/ha): 8
- Plant response rating, Wild buckwheat (wild buckwheat; Rate 200 g/ha, POSTEMERGENCE): 10
- Plant response rating, Wild buckwheat (wild buckwheat; Rate 200 g/ha, PREEMERGENCE): 10
- Plant response rating, Sugar beet (sugar beet; POSTEMERGENCE, Rate 50 g/ha): 10
- Plant response rating, Sugar beet (sugar beet; PREEMERGENCE, Rate 50 g/ha): 9
- Plant response rating, Sugar beet (sugar beet; Rate 200 g/ha, POSTEMERGENCE): 10
- Plant response rating, Sugar beet (sugar beet; Rate 200 g/ha, PREEMERGENCE): 10
- Plant response rating, Corn (corn [1]; 62 g/ha): 90
- Plant response rating, Corn (corn [1]; 250 g/ha): 90
- Plant response rating (0 to 100), Corn (corn [1]; Rate 4 g/ha): 20
- Plant response rating (0 to 100), Corn (corn [1]; Rate 16 g/ha): 50
- Plant response rating (0 to 100), Barnyardgrass (barnyardgrass; [5]): 45
- Plant response rating (0 to 100), Barnyardgrass (barnyardgrass; [6]): 95
- Plant response rating, Barnyardgrass (barnyardgrass; 62 g/ha): 100
- Plant response rating, Barnyardgrass (barnyardgrass; 250 g/ha): 100
- Plant response rating, Bedstraw (bedstraw [2]; 62 g/ha): 70
- Plant response rating, Bedstraw (bedstraw [2]; 250 g/ha): 100
- Plant response rating (0 to 100), Bedstraw (bedstraw [2]; Rate 4 g/ha): 40
- Plant response rating (0 to 100), Bedstraw (bedstraw [2]; Rate 16 g/ha): 60
- Plant response rating (0 to 100), Duck salad (duck salad; [5]): 0
- Plant response rating (0 to 100), Duck salad (duck salad; [6]): 0
- Plant response rating Duck salad (duck salad; 62 g/ha): 25
- Plant response rating Duck salad (duck salad; 250 g/ha): 45
- Plant response rating Downy Brome (downy brome; 62 g/ha): 50
- Plant response rating Downy Brome (downy brome; 250 g/ha): 80
- Plant response rating (0 to 100), Downy Brome (downy brome; Rate 4 g/ha): 30
- Plant response rating (0 to 100), Downy Brome (downy brome; Rate 16 g/ha): 40
- Plant response rating, Sorghum (sorghum; 62 g/ha): 100
- Plant response rating, Sorghum (sorghum; 250 g/ha): 100
- Plant response rating (0 to 100), Sorghum (sorghum; Rate 4 g/ha): 40
- Plant response rating (0 to 100), Sorghum (sorghum; Rate 16 g/ha): 60
- Plant response rating, Corn (corn [3]; POSTEMERGENCE, Rate 50 g/ha): 8
- Plant response rating, Corn (corn [3]; POSTEMERGENCE, Rate 200 g/ha): 10
- Plant response rating, Corn (corn [3]; PREEMERGENCE, Rate 50 g/ha): 0
- Plant response rating, Corn (corn [3]; Rate 200 g/ha, PREEMERGENCE): 0
- Plant response rating, Cotton (cotton; 62 g/ha): 100
- Plant response rating, Cotton (cotton; 250 g/ha): 100
- Plant response rating (0 to 100), Cotton (cotton; Rate 4 g/ha): 90
- Plant response rating (0 to 100), Cotton (cotton; Rate 16 g/ha): 90
- Plant response rating, Bedstraw (bedstraw [4]; POSTEMERGENCE, Rate 50 g/ha): 10
- Plant response rating, Bedstraw (bedstraw [4]; POSTEMERGENCE, Rate 200 g/ha): 10
- Plant response rating, Bedstraw (bedstraw [4]; PREEMERGENCE, Rate 50 g/ha): 0
- Plant response rating, Bedstraw (bedstraw [4]; Rate 200 g/ha, PREEMERGENCE): 9
- Plant response rating, Giant foxtail (giant foxtail; 62 g/ha): 50
- Plant response rating, Giant foxtail (giant foxtail; 250 g/ha): 85
- Plant response rating (0 to 100), Giant foxtail (giant foxtail; Rate 4 g/ha): 40
- Plant response rating (0 to 100), Giant foxtail (giant foxtail; Rate 16 g/ha): 50
- Plant response rating, Chickweed (chickweed; POSTEMERGENCE, Rate 200 g/ha): 10
- Plant response rating, Chickweed (chickweed; PREEMERGENCE, Rate 50 g/ha): 0
- Plant response rating, Chickweed (chickweed; Rate 200 g/ha, PREEMERGENCE): 10
- Plant response rating, Wild oat (wild oat; 62 g/ha): 50
- Plant response rating, Wild oat (wild oat; 250 g/ha): 60
- Plant response rating (0 to 100), Wild oat (wild oat; Rate 4 g/ha): 20
- Plant response rating (0 to 100), Wild oat (wild oat; Rate 16 g/ha): 40
- Plant response rating, Wheat (wheat; 62 g/ha): 50
- Plant response rating, Wheat (wheat; 250 g/ha): 60
- Plant response rating (0 to 100), Wheat (wheat; Rate 4 g/ha): 20
- Plant response rating (0 to 100), Wheat (wheat; Rate 16 g/ha): 40
- Plant response rating, Morningglory (morningglory; 62 g/ha): 90
- Plant response rating, Morningglory (morningglory; 250 g/ha): 100
- Plant response rating (0 to 100), Morningglory (morningglory; Rate 4 g/ha): 40
- Plant response rating (0 to 100), Morningglory (morningglory; Rate 16 g/ha): 60
